Results on 1 compound are retold here after PMC7369637, “Inhibition of Resistance-Refractory P. falciparum Kinase PKG Delivers Prophylactic, Blood Stage, and Transmission-Blocking Antiplasmodial Activity” (Cell Chemical Biology, 2020).

What all share (assay): Chemoproteomics in human mixed tissue extracts
Holding throughout (type): binding
Common to all, as to settings: read-out: Kdapp

One experiment concerns the target T1, nemo-like kinase (Homo sapiens, UniProt Q9UBE8).
T1 construct: human cell/tissue protein extract (a mixture of HEK-293, K-562, Hep G2 , and placental cells); endogenous in cells; host or cells: mixture of HEK-293, K-562, Hep G2 and placenta
As to the method:
(§1) Human extracts were prepared as described ([Bantscheff et al., 2011]). Briefly, frozen cell pellets were homogenized in lysis buffer (50 mM Tris-HCl, 0.8% Igepal-CA630, 5% glycerol, 150 mM NaCl, 1.5 mM MgCl2, 25 mM sodium fluoride, 1 mM sodium vanadate, 1 mM DTT, pH 7.5). One cOmplete EDTA-free protease inhibitor tablet (Roche) was added per 25 ml. Samples were dispersed using a Dounce homogenizer, rotated for 30 min at 4°C, and centrifuged at 20,000g for 10 min at 4°C. Supernatants were then recentrifuged at 145,000g for 1 h at 4°C. Protein concentrations were determined using a Bradford assay (BioRad). Aliquots were snap frozen in liquid nitrogen and stored at −80°C.
(§2) Kinobeads were prepared by immobilizing Bis-(III) indolyl-maleimide, purvalanol B, staurosporine and CZC8004, and the analogs of PD173955, sunitinib and vandetanib on NHS-activated Sepharose 4 beads (Amersham) ([Bantscheff et al., 2007]). […] The chemoproteomic affinity-capturing experiments were performed as previously described ([Bantscheff et al., 2011]). Briefly, beads were washed and equilibrated in lysis buffer (50 mM Tris-HCl, pH 7.4, 0.4 % Igepal-CA630, 1.5 mM MgCl2, 5 % Glycerol, 150 mM NaCl, 25 mM NaF, 1 mM Na3VO4, 1 mM DTT, and one cOmplete EDTA-free protease inhibitor tablet (Roche) per 25 mL). The beads were incubated at 4°C for 1 h with either 0.1 ml (0.3 mg) Pf blood stage extract or 0.5 mL (2.5 mg) human cell/tissue protein extract (a mixture of HEK-293, K-562, Hep G2 , and placental cells), which was pre-incubated with compound or DMSO (vehicle control). 10 samples were measured in parallel (TMT 10-plex ([Werner et al., 2014])) to generate values for the affinity of the beads to the bound proteins (“depletion” values, 4 samples) and to generate IC50 values (6 samples) in a single experiment. Apparent dissociation constants were determined after accounting for protein depletion by the beads ([Bantscheff et al., 2011]). Beads were transferred to Filter plates (Durapore PVDF membrane, Merck Millipore), washed with lysis buffer, and eluted with SDS sample buffer.
(§3) Proteins were digested according to a modified single pot solid-phase sample preparation (SP3) protocol ([Hughes et al., 2014]). Peptides were labeled with isobaric mass tags (Thermo Fisher Scientific, Waltham, MA) using 10-plex TMT reagents, enabling relative quantification of 10 conditions in a single experiment ([Werner et al., 2014]). The labeling reactions and LC-MS/MS measurements using Q Exactive Orbitrap or Orbitrap Fusion Lumos mass spectrometers (Thermo Fisher Scientific) were performed as described elsewhere ([Sridharan et al., 2019]). Mascot 2.4 (Matrix Science, Boston, MA) was used for protein identification by using a 10 parts per million mass tolerance for peptide precursors and 20 mD (HCD) mass tolerance for fragment ions. To create the fasta file for mascot searching, all proteins corresponding to the taxonomy ‘Plasmodium falciparum (isolate 3D7)’ were downloaded from Uniprot (release 20170621) and supplemented with common contaminant protein sequences of bovine serum albumin, porcine trypsin and mouse, rat, sheep and dog keratins. To assess the false discovery rate (FDR), “decoy” proteins (reverse of all protein sequences) were created and added to the database, resulting in a database containing a total of 14266 protein sequences, with 50% forward and 50% reverse. For peptide and protein identification of human proteins see ([Sridharan et al., 2019]). Unless stated otherwise, we accepted protein identifications as follows: (i) For single-spectrum to sequence assignments, we required this assignment to be the best match and a minimum Mascot score of 31 and a 10× difference of this assignment over the next best assignment. Based on these criteria, the decoy search results indicated <1% false discovery rate (FDR). (ii) For multiple spectrum to sequence assignments and using the same parameters, the decoy search results indicated <0.1% FDR. […]

Experiment [1] has as its target T2, transforming growth factor β receptor 1 (Homo sapiens, UniProt P36897).
T2 construct: human cell/tissue protein extract (a mixture of HEK-293, K-562, Hep G2 , and placental cells); endogenous in cells; host or cells: mixture of HEK-293, K-562, Hep G2 and placenta
The procedure: as §1, §2, §3

The target of the next experiment is T3, protein kinase N3 (Homo sapiens, UniProt Q6P5Z2).
T3 construct: human cell/tissue protein extract (a mixture of HEK-293, K-562, Hep G2 , and placental cells); endogenous in cells; host or cells: mixture of HEK-293, K-562, Hep G2 and placenta
T3 sequence (Q6P5Z2 whole entry): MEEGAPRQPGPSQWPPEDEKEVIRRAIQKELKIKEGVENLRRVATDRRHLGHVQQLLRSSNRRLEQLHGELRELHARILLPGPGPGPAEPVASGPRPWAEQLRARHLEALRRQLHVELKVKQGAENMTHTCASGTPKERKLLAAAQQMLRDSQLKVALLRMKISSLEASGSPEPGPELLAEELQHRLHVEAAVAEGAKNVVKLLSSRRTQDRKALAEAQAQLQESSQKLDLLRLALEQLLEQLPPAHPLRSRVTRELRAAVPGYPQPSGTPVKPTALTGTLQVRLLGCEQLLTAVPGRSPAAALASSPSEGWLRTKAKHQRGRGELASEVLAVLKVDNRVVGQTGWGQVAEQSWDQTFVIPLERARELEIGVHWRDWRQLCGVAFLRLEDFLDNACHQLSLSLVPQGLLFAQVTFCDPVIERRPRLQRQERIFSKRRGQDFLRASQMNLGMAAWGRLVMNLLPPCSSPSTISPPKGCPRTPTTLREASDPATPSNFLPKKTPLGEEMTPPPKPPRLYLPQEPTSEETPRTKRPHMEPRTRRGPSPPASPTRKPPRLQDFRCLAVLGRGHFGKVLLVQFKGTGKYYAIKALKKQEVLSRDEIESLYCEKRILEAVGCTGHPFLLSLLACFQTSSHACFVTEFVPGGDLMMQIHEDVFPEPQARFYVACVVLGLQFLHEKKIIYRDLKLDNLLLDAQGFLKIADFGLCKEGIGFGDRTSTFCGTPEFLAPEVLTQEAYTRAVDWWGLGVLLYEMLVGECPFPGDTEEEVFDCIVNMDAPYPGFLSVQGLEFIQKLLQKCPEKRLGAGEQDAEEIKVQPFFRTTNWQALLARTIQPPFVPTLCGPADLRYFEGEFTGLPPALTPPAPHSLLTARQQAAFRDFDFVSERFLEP
As to the method: as §1, §2, §3

For the next experiment, the target named is T4, casein kinase 1δ (Homo sapiens, UniProt P48730).
T4 construct: human cell/tissue protein extract (a mixture of HEK-293, K-562, Hep G2 , and placental cells); endogenous in cells; host or cells: mixture of HEK-293, K-562, Hep G2 and placenta
T4 sequence (P48730 whole entry): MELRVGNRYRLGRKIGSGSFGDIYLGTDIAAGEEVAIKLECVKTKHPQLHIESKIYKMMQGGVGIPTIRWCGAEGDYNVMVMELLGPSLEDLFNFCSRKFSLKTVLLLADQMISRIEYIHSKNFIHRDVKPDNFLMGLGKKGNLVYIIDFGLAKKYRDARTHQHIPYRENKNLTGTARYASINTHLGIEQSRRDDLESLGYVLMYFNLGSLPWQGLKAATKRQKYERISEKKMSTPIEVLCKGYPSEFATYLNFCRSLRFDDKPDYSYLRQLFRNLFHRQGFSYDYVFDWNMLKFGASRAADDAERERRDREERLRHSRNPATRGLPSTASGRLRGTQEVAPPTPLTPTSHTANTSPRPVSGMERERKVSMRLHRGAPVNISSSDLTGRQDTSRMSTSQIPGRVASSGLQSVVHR
As to the method: as §1, §2, §3

Experiment [2] addresses T5, receptor interacting serine/threonine kinase 2 (Homo sapiens, UniProt O43353).
T5 construct: human cell/tissue protein extract (a mixture of HEK-293, K-562, Hep G2 , and placental cells); endogenous in cells; host or cells: mixture of HEK-293, K-562, Hep G2 and placenta
The procedure: as §1, §2, §3

For experiment [3], the target named is T6, testis-associated actin remodeling kinase 2 (Homo sapiens, UniProt Q96S53).
T6 construct: human cell/tissue protein extract (a mixture of HEK-293, K-562, Hep G2 , and placental cells); endogenous in cells; host or cells: mixture of HEK-293, K-562, Hep G2 and placenta
T6 sequence (Q96S53 whole entry): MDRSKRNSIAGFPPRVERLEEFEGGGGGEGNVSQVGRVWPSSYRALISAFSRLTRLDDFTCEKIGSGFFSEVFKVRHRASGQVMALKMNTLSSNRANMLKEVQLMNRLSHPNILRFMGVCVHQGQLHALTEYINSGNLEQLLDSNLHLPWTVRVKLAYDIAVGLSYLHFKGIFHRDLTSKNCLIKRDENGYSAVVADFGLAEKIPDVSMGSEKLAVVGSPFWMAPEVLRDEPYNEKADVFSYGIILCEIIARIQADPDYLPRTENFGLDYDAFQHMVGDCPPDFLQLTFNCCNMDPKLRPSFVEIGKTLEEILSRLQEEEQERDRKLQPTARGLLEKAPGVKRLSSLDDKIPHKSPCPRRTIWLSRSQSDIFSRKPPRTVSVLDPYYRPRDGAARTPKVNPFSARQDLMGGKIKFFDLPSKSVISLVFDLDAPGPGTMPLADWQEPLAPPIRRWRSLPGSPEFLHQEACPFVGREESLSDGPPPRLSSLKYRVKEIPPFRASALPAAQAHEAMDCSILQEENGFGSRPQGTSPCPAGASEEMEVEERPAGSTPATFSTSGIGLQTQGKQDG
As to the method: as §1, §2, §3

In experiment [4] the target is T7, transforming growth factor β receptor 2 (Homo sapiens, UniProt P37173).
T7 construct: human cell/tissue protein extract (a mixture of HEK-293, K-562, Hep G2 , and placental cells); endogenous in cells; host or cells: mixture of HEK-293, K-562, Hep G2 and placenta
T7 sequence (P37173 23-567): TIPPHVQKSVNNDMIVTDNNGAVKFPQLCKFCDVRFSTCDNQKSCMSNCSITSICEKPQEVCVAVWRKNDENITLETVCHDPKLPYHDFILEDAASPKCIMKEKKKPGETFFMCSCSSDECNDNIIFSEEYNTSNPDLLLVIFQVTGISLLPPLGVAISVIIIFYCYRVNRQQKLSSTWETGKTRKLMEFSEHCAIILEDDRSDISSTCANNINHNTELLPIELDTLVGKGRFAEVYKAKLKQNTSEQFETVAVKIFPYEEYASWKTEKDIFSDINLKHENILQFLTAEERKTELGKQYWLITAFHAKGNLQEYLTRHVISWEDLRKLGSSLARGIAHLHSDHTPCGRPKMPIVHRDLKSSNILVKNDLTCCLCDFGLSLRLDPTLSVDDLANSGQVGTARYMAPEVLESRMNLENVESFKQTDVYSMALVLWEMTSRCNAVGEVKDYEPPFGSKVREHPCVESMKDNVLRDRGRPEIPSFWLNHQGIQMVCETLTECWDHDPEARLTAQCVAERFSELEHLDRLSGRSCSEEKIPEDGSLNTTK
The procedure:
as §1, §2, §3

T5 sequence (O43353 whole entry): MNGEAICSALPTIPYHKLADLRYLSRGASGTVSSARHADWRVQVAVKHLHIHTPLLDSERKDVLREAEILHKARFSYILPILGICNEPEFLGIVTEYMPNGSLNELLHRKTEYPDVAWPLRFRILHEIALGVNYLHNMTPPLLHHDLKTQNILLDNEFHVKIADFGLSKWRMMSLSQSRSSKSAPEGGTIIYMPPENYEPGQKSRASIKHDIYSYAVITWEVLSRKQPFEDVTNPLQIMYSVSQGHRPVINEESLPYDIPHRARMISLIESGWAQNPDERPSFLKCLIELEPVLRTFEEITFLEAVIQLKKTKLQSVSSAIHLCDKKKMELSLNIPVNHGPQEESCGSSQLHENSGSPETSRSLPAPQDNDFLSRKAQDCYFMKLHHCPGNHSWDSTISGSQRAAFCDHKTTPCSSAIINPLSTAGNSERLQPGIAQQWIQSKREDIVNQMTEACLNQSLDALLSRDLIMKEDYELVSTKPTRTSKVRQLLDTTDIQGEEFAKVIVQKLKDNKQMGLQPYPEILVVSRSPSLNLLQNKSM
T2 sequence (P36897 34-503): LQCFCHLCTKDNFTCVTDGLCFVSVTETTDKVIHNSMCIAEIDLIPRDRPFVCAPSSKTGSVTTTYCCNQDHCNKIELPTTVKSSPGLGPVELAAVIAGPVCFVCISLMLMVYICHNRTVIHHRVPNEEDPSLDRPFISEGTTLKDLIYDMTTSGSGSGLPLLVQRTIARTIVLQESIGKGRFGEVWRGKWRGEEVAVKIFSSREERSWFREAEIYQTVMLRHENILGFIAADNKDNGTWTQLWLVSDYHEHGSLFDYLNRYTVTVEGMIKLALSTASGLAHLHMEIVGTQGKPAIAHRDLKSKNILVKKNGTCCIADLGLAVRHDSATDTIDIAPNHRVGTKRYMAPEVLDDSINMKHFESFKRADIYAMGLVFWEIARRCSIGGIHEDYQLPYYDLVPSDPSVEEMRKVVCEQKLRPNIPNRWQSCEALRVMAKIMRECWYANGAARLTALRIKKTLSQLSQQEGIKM
T1 sequence (Q9UBE8 whole entry): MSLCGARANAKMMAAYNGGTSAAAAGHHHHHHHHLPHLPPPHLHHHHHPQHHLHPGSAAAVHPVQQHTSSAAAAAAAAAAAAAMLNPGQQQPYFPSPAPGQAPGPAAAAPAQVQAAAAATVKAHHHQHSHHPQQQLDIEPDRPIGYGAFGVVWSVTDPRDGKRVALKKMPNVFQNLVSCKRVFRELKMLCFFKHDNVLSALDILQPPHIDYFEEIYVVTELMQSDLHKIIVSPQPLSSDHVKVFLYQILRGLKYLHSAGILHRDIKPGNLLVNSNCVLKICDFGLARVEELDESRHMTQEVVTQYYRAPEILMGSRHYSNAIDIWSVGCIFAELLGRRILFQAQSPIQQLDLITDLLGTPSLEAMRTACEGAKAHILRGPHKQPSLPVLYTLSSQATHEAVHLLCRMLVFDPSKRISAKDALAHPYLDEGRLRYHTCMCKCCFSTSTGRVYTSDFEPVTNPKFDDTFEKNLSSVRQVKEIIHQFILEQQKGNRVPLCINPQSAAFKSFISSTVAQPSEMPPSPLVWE

For the compound `CC(C)(CN)c1nc(-c2ccc(Cl)c(O)c2)c(-c2ccncc2)[nH]1` [MMV030084], the Kd at nemo-like kinase came out at 20 nM; in experiment [1], 20 nM; at protein kinase N3 it was 8.5 nM; on casein kinase 1δ it was 95 nM; in experiment [2], 4.5 nM; in experiment [3], 25 nM. The Kd in experiment [4] came to 35 nM.
